Here are results for 2 compounds from patent US20260000079A1, “COMPOSITIONS AND METHODS FOR MODULATING IMMUNITY IN PLANTS” (BOYCE THOMPSON INSTITUTE FOR PLANT RESEARCH, INC., priority 2019, published 2026).

The test system of experiment [1] is Meloidogyne incognita. The experiment can be described thus: Arabidopsis nematode infection assay (root galls). It is filed as in vivo. Conditions: 48 hours root pretreatment. Here is the method: (§1) FIG. 4A provides a schematic of the experimental designs for assessing activation of defense pathways and resistance to nematodes and bacteria. […] Bacterial growth was assayed 3 days post inoculation. Data are averages±s.d. (n=17). […] Arabidopsis seedlings were treated with buffer or the indicated concentrations of ascr #18 for 48 hours before inoculation with approximately 300 freshly hatched M. incognita J2 larvae. The numbers of root galls of infected plants were counted 6 weeks post inoculation. Data are averages±s.d. (n≥15). […] Arabidopsis seedlings were treated with the indicated concentrations of ascr #18 for 48 hours before transfer into 12-well plates containing Pluronic® F-127 gel with ˜200 freshly hatched M. incognita J2 larvae. Larvae touching root tips (FIG. 4D) or the whole area of roots (FIG. 4E) were counted at 6 hours post seedling transfer. Data are average±s.d. (n=12). […] Transcript levels were determined by qRT-PCR and plotted as relative fold-change compared to mock treated plants. Data are averages±s.d (n≥6). *P≤0.05; **P≤0.005; ***P≤0.0005; two-tailed t-test.
For Arabidopsis nematode infection assays, Meloidogyne incognita was propagated and hatched as described (Manosalva, et al. (2015) Nat. Commun. 6:7795). Briefly, M. incognita were propagated on tomato (Solanum lycopersicum cv. Tiny Tim). M. incognita eggs were then isolated from egg masses on tomato roots with 0.5% sodium hypochlorite and rinsed with water on a 25-μm sieve. Collected nematode eggs were treated in a solution of 0.02% sodium azide for 20 minutes, and then hatched over water containing 1.5 mg/mL gentamycin sulfate and 0.05 mg/mL nystatin at room temperature on a Baermann pan for three days. Hatched second-stage juveniles (J2) were collected, surface sterilized with an aqueous solution of mercuric chloride (0.004%) and sodium azide (0.004%) for 10 minutes, and rinsed three times with sterile distilled water. […] Galls for M. incognita were counted under a microscope six weeks after inoculation. […]

Experiment [2] relates to M. incognita J2 larvae. The experiment can be described thus: J2 larvae touching roots of pretreated seedlings in PF-127 gel. It is filed as in vivo, Meloidogyne incognita. Conditions: 48 hours pretreatment. Here is the method:
as §1
FIG. 6A provides a graph of the number of nematodes touching the root tips of Arabidopsis wildtype and acx1acx5 treated with 50 nM ascr #18 or ascr #9 for 48 hours before transfer into 12-well plates containing Pluronic® F-127 gel with ˜200 freshly hatched M. incognita J2 larvae. Larvae touching the terminal part of roots were counted at 6 hours after seedling transfer. Data are average±s.d. (n=12). FIG. 6B provides a schematic of a Petri dish as shown in the plate layout. […] Larvae in the indicated scoring areas were counted after 4 hours. […] FIG. 6D provides the attraction index for different concentrations of ascr #18, ascr #9, or ascr #18/ascr #9 mixtures measured using the layout shown in FIG. 6C. […]
In a second experiment, wildtype and acx1acx5 were treated with ascr #18 for 48 hours prior to moving seedlings to a PF-127 gel containing approximately 200 M. incognita second-stage larvae (J2) (FIG. 4A, 4D, 4E). J2 larvae touching the roots were counted at 6 hours post seedling transfer.

Experiment [3] deals with M. incognita J2 larvae. Description: Quantitative chemotaxis population assay (worm attraction assay). It counts as in vivo, Meloidogyne incognita. Conditions: 6-cm Petri dish, larvae counted after 4 hours. Here is the method: FIG. 6A provides a graph of the number of nematodes touching the root tips of Arabidopsis wildtype and acx1acx5 treated with 50 nM ascr #18 or ascr #9 for 48 hours before transfer into 12-well plates containing Pluronic® F-127 gel with ˜200 freshly hatched M. incognita J2 larvae. Larvae touching the terminal part of roots were counted at 6 hours after seedling transfer. Data are average±s.d. (n=12). FIG. 6B provides a schematic of a Petri dish as shown in the plate layout. For FIG. 6C, the indicated concentrations of ascr #18, ascr #9, or ascr #18/ascr #9 mixtures were placed on one side with mock solutions on the other side of the 6-cm Petri dish. Subsequently, approximately 100 freshly hatched M. incognita J2 larvae were placed in the center of the plate. Larvae in the indicated scoring areas were counted after 4 hours. Data are averages±s.d. (n=12), **P≤0.003; two-tailed t-test. FIG. 6D provides the attraction index for different concentrations of ascr #18, ascr #9, or ascr #18/ascr #9 mixtures measured using the layout shown in FIG. 6C. Data are averages±SEM (n=12), **P≤0.002; two-tailed t-test.
Ascarosides were dissolved in ethanol to prepare millimolar stock solutions. […]
Chemotaxis plates were prepared by pouring 8 mL of 2% bacto-agar (BD Biosciences) into 6-cm Petri dishes. […] Worms that remained in the center 0.5-cm-wide strip were not counted. […]

For experiment [4], the system named is bacteria, viruses, fungi, oomycetes, and nematodes. Particulars: Manosalva, et al. (2015); cited from earlier work.
In experiment [5] the test system is entomopathogenic nematode species. Conditions: Kaplan, et al. (2012); cited from earlier work.

SMILES strings stand for the structures.

For `CC1O[C@@H](O[C@@H](C)CCCCCCCCC(=O)O)C(O)C[C@H]1O` (stereo in doubt) [ascr #18, (10R)-(3′R,5′R-dihydroxy-6′S-methyl-(2H)-tetrahydropyran-2-yloxy)-undecanoic acid], the “protection against M. incognita (root galls 6 weeks post inoculation)” value in experiment [1] (acx1acx5 mutant) was “no effect”; in experiment [1] (wildtype, 10 nM) it was “significant protection”; in experiment [1] (wildtype, 50 nM), “significant protection”. Moreover, the “effect on M. incognita behavior (J2 larvae touching roots)” value in experiment [2] (wildtype or mutant, 1 μM) is reported as “did not significantly affect”. In addition, the “numbers of J2 larvae touching the root tips or whole root area” value in experiment [2] (wildtype, 50 nM, counted 6 hours post transfer) is “significantly reduced”. For the same compound, the “chemotaxis behavior of M. incognita J2 larvae (attraction index)” value in experiment [3] is reported as “no significant effect”. For the same compound, in experiment [4], the “resistance of plants to pathogens” value is “enhance resistance of monocot and dicot plants to a wide range of pathogens”.
Regarding `C[C@H](CCC(=O)O)O[C@@H]1O[C@@H](C)[C@H](O)C[C@H]1O` [ascr #9], the “effect on infection (J2 larvae touching root tips)” value in experiment [2] (wildtype or acx1acx5, 50 nM) is reported as “did not significantly reduce infection”. Also, the “chemotaxis behavior of M. incognita J2 larvae (attraction index)” value in experiment [3] is on record as “no significant effect”. Also, in experiment [5], the dispersal behavior entry was “mediate dispersal behavior”.
